Source: US20160146815A1, “METHOD FOR SCREEING CANCER METASTASIS INHIBITOR USING CULTURE OF CELLS OR SPHEROIDICALLY AGGREGATED CELLS IN WHICH LYSYL-TRNA SYNTHETASE IS REGULATED TO BE EXPRESSED OR UNEXPRESSED” (Medicinal Bioconvergence Research Center, priority 2013, published 2016)
“Also recorded” adds a separate entry of the source.

How the values were obtained:
[1] = tested on: lysyl-tRNA synthetase (KRS); test: KRS expression after shRNA transfection (Western blotting); format: cell-based, homo sapiens; settings: HCT116 cells transfected with KRS shRNA plasmid DNA
Excerpt: Particularly, the cell line wherein KRS expression was suppressed was constructed by transfecting cells with lysyl-tRNA synthetase MISSION® shRNA plasmid DNA (Sigma, USA). At this time, the said KRS was homo sapiens lysyl-tRNA synthetase (transcript variant 1, mRNA sequence: NM_001130089.1). This KRS includes […] long exon 1˜15. Among the purchased KRS shRNA plasmid DNAs, shKRS-0 (SEQ. ID. NO: 1) targets 1581˜1604 bp (exon 12) of KRS, shRKS-1 (SEQ. ID. NO: 2) targets 437˜459 bp (exon 3˜4), shKRS-2 (SEQ. ID. NO: 3) targets 911˜933 bp (exon 7), and shKRS-5 (SEQ. ID. NO: 4) targets 1071˜1092 bp (exon 8). TRC1.5-pLK0.1-puro was used as the expression vector. Selection was performed by using puromycin to establish stable cell lines.
Western blotting was performed to investigate whether or not the KRS expression was inhibited in the spheroidically aggregated cells of the KRS knock-out cell lines constructed by the method of Example <2-1>.

[2] = tested on: HCT116 spheroidically aggregated cells; test: Dissemination of cells from spheroidically aggregated cells in three-dimensional collagen gel (time-lapse microscope); format: cell-based, human
Procedure: Particularly, 2.5 mg/Ml of collagen containing cells was loaded in the magnetic 4-well chamber (Live Cell Instrument, Korea) for the culture system of time-lapse microscope, and the collagen was hardened in a 37° C. incubator for 30 minutes. When the collagen was fully solidified, PRMI-1640 supplemented with 10% FBS was added thereto. The magnetic chamber containing three-dimensional collagen gel and its corresponding adaptor were placed on the time-lapse microscope, followed by setting the multi-position. […] 5% CO2 incubator. Culture medium was added thereto every 6 hours in order for the collagen not to be dried. At this time, it is important to maintain the focus not to be changed. […]
As confirmed in the result of Example 14, when the HCT116 parental cells were treated with TGFβ1, the dissemination of cells from the spheroidically aggregated cells and migration thereof were observed. When the KRS knock-out cell line was treated with TGFβ1, the dissemination of cells was not observed. […] When the extracellular signal-regulated kinase (ERKs) inhibitor U0126 was treated to the HCT116 parental cells, it was presumed to be negative effect on the dissemination and migration of cells. To verify above, 50 μM of U0126, the ERKs inhibitor, was treated to the cell line, followed by observation of cell dissemination and migration by real-time live imaging of the spheroidically aggregated cells.

HCT116 cells = test: EMT marker protein expression in two-dimensional culture treated with cytokines (Western blotting); format: cell-based, human; settings: 10% FBS
Procedure: Particularly, the cell line cultured in a two-dimensional environment with 10% serum was washed with PBS twice, followed by reaction at 4° C. for 15 minutes in 200 μl of lysis buffer [50 mM Tris-HCl, pH 7.4, 1% NP-40, 0.25% sodium deoxycholate, 150 mM NaCl, 1 mM EDTA] supplemented with SDS, Na3O4V, and protease inhibitor cocktails (GenDepot, USA). The cells were collected and centrifuged at 4° C. at 13000×g for 30 minutes. The supernatant was transferred in a new microcentrifuge tube, followed by protein quantification using BCA reagent (Thermo Scientifics, USA). To the quantified sample was added 4× sample buffer [100% glycerol 4 ml, Tris-HCl, pH 6.8, 2.4 ml, SDS 0.8 g, bromophenol blue 4 mg, β-mercaptoethanol 0.4 ml, H2O 3.1 ml (total 10 Ml)], which was boiled at 100° C. for 5 minutes. The prepared sample was treated with the primary antibodies of ZO-1 (Zymed, USA), β-catenin (Santa Cruz, USA), and E-cadherin by the same manner as described in Example <1-2>.
To observe the surrounding microenvironmental factors in a two-dimensional culture environment over the time, the culture fluid supplemented with 10% FBS was additionally treated with such cytokines as TNFα and TGFβ, followed by investigation of the expression of the epithelial marker protein that can be an index for cell-cell adhesion by the same manner as described in Example <3-1>.

[3] = TGFβ1, normal HCT116 and KRS over-expressing cell line

## shKRS-2: KRS MISSION shRNA plasmid DNA (Sigma), SEQ. ID. NO: 3, targets 911˜933 bp (exon 7) of KRS (DNA CCGGCCAGAGATACTTGGACTTGATCTCGAGATCAAGTCCAAGTATCTCTGGTTTTTG)
[1]
  KRS expression: KRS inhibiting effect

## TNFα
[2]; TNFα, 36 hours, HCT116 parental cells, KRS over-expressing cell line and KRS knock-out cell line
  formation of invasive protrusion: increased
[2]; TNFα, 36 hours, parental, KRS over-expressing and KRS knock-out cell lines (regardless of KRS expression)
  dissemination of cells from the cell mass and cell migration: observed
HCT116 cells; KRS knock-out cell line
  epithelial marker protein like occludin (ZO-1 and occludin) expression: increased
  fibronectin expression: reduced
HCT116 cells; TNFα, normal HCT116 and KRS over-expressing cell line
  expression of the epithelial marker protein: not changed

## shKRS-5: KRS MISSION shRNA plasmid DNA (Sigma), SEQ. ID. NO: 4, targets 1071˜1092 bp (exon 8) of KRS (DNA CCGGGCCTTTCATCACTTATCACAACTCGAGTTGTGATAAGTGATGAAAGGCTTTTTG)
[1]
  KRS expression: KRS inhibiting effect

## shKRS-0: KRS MISSION shRNA plasmid DNA (Sigma), SEQ. ID. NO: 1, targets 1581˜1604 bp (exon 12) of KRS (DNA CCGGCCTGGAAGTGACTTGCATCAACTCGAGTTGATGCAAGTCACTTCCAGGTTTTTG)
[1]
  KRS expression: KRS inhibiting effect

## TGFβ1: the most representative multifunctional and EMT inducing cytokine
[2]; TGFβ1, 36 hours, HCT116 parental cells and KRS over-expressing cell lines
  formation of invasive protrusion: not observed
[2]; TGFβ1, HCT116 parental cells and KRS over-expressing cell lines
  dissemination of cells from spheroid cells: observed
[2]; TGFβ1, KRS knock-out cell line
  cell migration: significantly decreased
  dissemination of cells: not and not observed
HCT116 cells; KRS knock-out cell line
  epithelial marker protein like occludin (ZO-1 and occludin) expression: increase; also recorded: up-regulated
  fibronectin expression: reduced; also recorded: down-regulated; also recorded: decrease
HCT116 cells; [3]
  fibronectin expression: up-regulated
  occludin or ZO-1 expression: down-regulated
